Data: US20210379063A1, “ORAL AMINODIHYDROPHTHALAZINEDIONE COMPOSITIONS AND THEIR USE IN THE TREATMENT OF NON-VIRAL HEPATITIS” (Immunopharma Plus D.O.O., priority 2018, published 2021)
Values joined by “and” are separate entries in the source; they are usually repeats but may differ in a detail not shown here. Equal values may be shown once. Read-outs that look alike come from different tables or passages of the source. Marks after values point to notes of the source that are not given here.

Legend:
[1] = tested on: macrophages; details: cited from earlier work
[2] = tested on: Toxic hepatopathy degree II
Protocol: The patient received standard hepatic therapy: Duphalac 50 ml 3 times a day, Hepasol A 1000 ml, Heptral 800 mg. Detoxification therapy was carried out. […] The patient was monitored for another 1 month in a poison center.

[3] = Protocol: Title: FaSSGF: Fasted State Simulating Gastric Fluid
Preparation FaSSGF (for 2000 ml)
Name: FeSSGF: Fed State Simulating Gastric Fluid
Name: FaSSIF Fasted State Simulating Intestinal Fluid
Name: FeSSIF Fed State Simulating Intestinal Fluid
For preparation of 2 L media
Name: SCoF (Simulated Colonic Fluid)
Preparation of 100 ml solution
Prior to testing • Lactobacilli drops (100 million per dissolution/20 million per permeation donor compartment) added
Each presented dissolution data is a summary of 3 results.

[4] = tested on: PHMG poisoning; test: Acute hepatitis caused by alcohol substitute PHMG in rats
Protocol: The experiment was carried out on 25 male white outbred rats weighing 200-300 g, in accordance with the recommendations of the international ethics committees on the humane treatment of laboratory animals (EU Council Directive 86/609 EEC dated Nov. 24, 1986). To create an experimental model, an aqueous solution of PHMG was used, which was administered intraperitoneally at a dose of 50 mg/100 g.

[5] = tested on: reparative liver regeneration after partial hepatectomy
Text: Reparative liver regeneration was caused by the removal of ⅔ mass of the organ—partial hepatectomy by G. M. Higgis, R. M. Anderson.

[6] = tested on: porcine small intestine; details: for concentration in receptor compartment, small intestine, AVG / concentration in receptor compartment, small intestine: 10 mM donor solution; for concentration in receptor compartment, small intestine: single chambers
Protocol: Porcine Small Intestinal (SI) Permeability Procedure • Full thickness pig small intestinal delivered to Solubest on the day of the experiment. • Experiments were carried out on 6 slices 2 cm*2 cm with full thickness pig small intestinal sample • The intestinal was prepared so brush border side is facing the donor compartment. • According to Solubest protocol the excess mucus and connective tissue were removed • The receiver compartment contains 0.01M Phosphate Buffer pH 7.4 (PBS). • Receiver's samples were withdrawn at 5 time points (30 min, 60 min, 120 min, 4 hours and 6 hours). • Water pump was set to temp 38±1° C. in order to keep fixed temp in receptor department at 37±1° C.

[7] = tested on: toxic hepatitis caused by Acetaminophen; details: for ALT / AST / AST/ALT / GTP / Biochemiluminescence of blood plasma (BCL, quant): Acetaminophen + Tamerit
Protocol: The experiment was carried out on 45 adult male outbred white rats weighing 288.5±12.9 g, in accordance with the recommendations of the international ethics committees on the humane treatment of laboratory animals (EU Council Directive 86/609 EEC dated Nov. 24, 1986). To create an experimental model, an aqueous solution of Acetaminophen was administered intragastrically using a probe at a dosage of 110 mg/kg of body weight, which is about 2 times higher than the maximum allowable daily dose in humans. […] The drug was administered intragastrically, using a probe, in the form of an aqueous solution

Remark: listed apart in the source
[8] = tested on: porcine large intestine (colon); test: Porcine large intestine permeability, Franz cell; details: for concentration in receptor comp, large intestine, AVG / concentration in receptor compartment, large intestine: 10 mM donor solution; for concentration in receptor compartment, large intestine: single chambers
Protocol: The intestine was prepared so the mucous side will be facing the donor compartment.

[9] = per os, enteric coated tablets, with standard hepatic therapy
[10] = PHMG 3 days + Tamerit intraperitoneally
[11] = PHMG 7 days + Tamerit intraperitoneally

Nc1cccc2c(=O)[n-][nH]c(=O)c12.[Na+] [Tamerit, aminodihydrophthalazinedione sodium]
duration of reversible suppression of macrophage hyperactivity ([1]; acute inflammatory diseases): 10 to 12 h | excretion [1]: rapidly excreted | toxicity [1]: extremely low toxicity | adverse effects ([2]; during the use of Tamerit): no adverse effects were noted | blood biochemical parameters [2, 9]: fully normalized | relief of symptoms of intoxication [2, 9]: highly effective | Dissolution, % ([3]; FaSSGF pH 1.6, 15 min): 88.24% | Dissolution, % ([3]; FaSSGF pH 1.6, 30 min): 90.68% | Dissolution, % ([3]; FaSSIF pH 6.5, 30 min, sodium): 98.62% | Dissolution, % ([3]; FaSSIF pH 6.5, 60 min): 103.11% | Dissolution, % ([3]; FaSSIF pH 6.5, 90 min): 102.16% | Dissolution, % ([3]; FaSSIF pH 6.5, 120 min): 102.37% | Dissolution, % ([3]; FaSSIF pH 6.5, 180 min): 103.78% | Dissolution, % ([3]; FeSSCoF pH 6.0, 15 min, sodium): 90% and 90.07% | Dissolution, % ([3]; FeSSCoF pH 6.0, 2 hr): 89.21% | Dissolution, % ([3]; FeSSCoF pH 6.0, 4 hr, sodium): 100% and 102.12% | Dissolution, % ([3]; FeSSCoF pH 6.0, 24 hr): 95.77% | Dissolution, % ([3]; FeSSGF pH 5.0, 15 min): 86.83% | Dissolution, % ([3]; FeSSGF pH 5.0, 30 min): 77.65% | Dissolution, % ([3]; FeSSGF pH 5.0, 45 min): 75.6% | Dissolution, % ([3]; FeSSGF pH 5.0, 90 min): 79.42% | Dissolution, % ([3]; FeSSIF pH 5.0, 30 min): 79.65% | Dissolution, % ([3]; FeSSIF pH 5.0, 60 min): 69.28% | Dissolution, % ([3]; FeSSIF pH 5.0, 90 min, sodium): 90% and 87.40% | Dissolution, % ([3]; FeSSIF pH 5.0, 120 min): 84.48% | Dissolution, % ([3]; FeSSIF pH 5.0, 180 min): 88.50% | pH at which Tamerit is the most soluble ([3]; Tamerit powder dissolution, FIG. 2): 6.5 | stability ([3]; colonic conditions): very stable | stability ([3]; fast and fed conditions of the small intestinal): quite stable | stability ([3]; fast and fed gastric conditions): sufficient stability | dissolution ([3]; fast gastric media): ~90% | dissolution ([3]; fed gastric media): 80-90% | degree of hepatocyte destruction ([4]; 7th day after PHMG): minimal | ALT, U/L ([4]; PHMG 3rd day + Tamerit): 5.7 ± 1.9 U/L | AST, U/L ([4]; PHMG 3rd day + Tamerit): 11.3 ± 0.6 U/L | GTP, U/L ([4]; PHMG 3rd day + Tamerit): 17.5 ± 2.0 U/L | ALT, U/L ([4]; PHMG 7th day + Tamerit): 8.1 ± 0.2 U/L | AST, U/L ([4]; PHMG 7th day + Tamerit): 12.1 ± 0.3 U/L | GTP, U/L ([4]; PHMG 7th day + Tamerit): 26.0 ± 3.4 U/L | Binuclear cells, % [4, 10]: 65.12 ± 0.14 % | Mitotic index, % [4, 10]: 38.26 ± 0.18 % | Binuclear cells, % [4, 11]: 61.18 ± 0.24 % | Mitotic index, % [4, 11]: 45.6 ± 0.14* ** % | Mitotic index, % ([5]; hepatectomy 4 hours + Tamerit): 2 ± 0.8 % | Nuclear cytoplasmic index ([5]; hepatectomy 4 hours + Tamerit): 0.40 ± 0.005 | Number of binuclear cells, % ([5]; hepatectomy 4 hours + Tamerit): 16.6 ± 1.69% | The size of the nucleus of hepatocytes, μm ([5]; hepatectomy 4 hours + Tamerit): 8.0 ± 0.26 μm | Mitotic index, % ([5]; hepatectomy 17 hours + Tamerit): 5.5 ± 1.3 % | Nuclear cytoplasmic index ([5]; hepatectomy 17 hours + Tamerit): 0.319 ± 0.01 | Number of binuclear cells, % ([5]; hepatectomy 17 hours + Tamerit): 29.83 ± 2.5 % | The size of the nucleus of hepatocytes, μm ([5]; hepatectomy 17 hours + Tamerit): 7.67 ± 0.28 μm | increase of the number of hepatocytes that divide by mitosis ([5]; regenerating liver): by an order of magnitude | concentration in receptor compartment, small intestine, AVG ([6]; 0 min): 0 ng/mL | concentration in receptor compartment, small intestine ([6]; 0 min): 0 ng/mL | concentration in receptor compartment, small intestine, AVG ([6]; 30 min): 1000 ng/mL | concentration in receptor compartment, small intestine, AVG ([6]; 60 min): 3000 ng/mL | concentration in receptor compartment, small intestine ([6]; 60 min, sodium): 3500 ng/mL and 2400 ng/mL | concentration in receptor compartment, small intestine, AVG ([6]; 120 min): 6000 ng/mL | concentration in receptor compartment, small intestine ([6]; 120 min, sodium): 5400 ng/mL and 5600 ng/mL and 9100 ng/mL and 5100 ng/mL | concentration in receptor compartment, small intestine, AVG ([6]; 240 min): 12000 ng/mL | concentration in receptor compartment, small intestine, AVG ([6]; 360 min): 23000 ng/mL | concentration in receptor compartment, small intestine ([6]; 360 min, sodium): 26400 ng/mL and 19500 ng/mL and 28700 ng/mL and 19000 ng/mL | Tamerit Permeability vs Propranolol Permeability ([6]; small intestine, FIG. 11): permeates better than propranolol | permeation compared with Propranolol ([6]; small intestine, after 4 hours): three time better than Propranolol | ALT ([7]; 3rd day): 17.45 ± 1.3 U/L | AST ([7]; 3rd day): 23.61 ± 1.2 U/L | AST/ALT ([7]; 3rd day): 1.35 ± 0.03 | GTP ([7]; 3rd day): 35.8 ± 1.2 U/L | ALT ([7]; 5th day): 12.2 ± 0.9 U/L | AST ([7]; 5th day): 15.0 ± 1.0 U/L | AST/ALT ([7]; 5th day): 1.24 ± 0.01 | GTP ([7]; 5th day): 33.8 ± 0.9 U/L | ALT ([7]; 7th day): 12.0 ± 0.8 U/L | AST ([7]; 7th day): 16.01 ± 2.0 U/L | AST/ALT ([7]; 7th day): 1.33 ± 0.02 | GTP ([7]; 7th day): 30.8 ± 1.8 U/L | ALT ([7]; 12th day): 18.0 ± 1.8 U/L | AST ([7]; 12th day): 22.1 ± 1.5 U/L | AST/ALT ([7]; 12th day): 1.22 ± 0.04 | GTP ([7]; 12th day): 29.4 ± 1.5 U/L | Biochemiluminescence of blood plasma (BCL, quant) ([7]; 3 days): 213.0 ± 4.0 quant | Biochemiluminescence of blood plasma (BCL, quant) ([7]; 12 days): 215.6 ± 5.0 quant | signs of toxic hepatitis ([7]; rats treated with Tamerit intragastrically): less pronounced | state of a solution containing 10 mM: supersaturated solution | permeability through large intestine tissue, in words [8]: good permeability | concentration in receptor comp, large intestine, AVG ([8]; 0 min): 0 ng/mL | concentration in receptor compartment, large intestine ([8]; 0 min): 0 ng/mL | concentration in receptor comp, large intestine, AVG ([8]; 30 min): 5000 ng/mL | concentration in receptor comp, large intestine, AVG ([8]; 60 min): 7000 ng/mL | concentration in receptor comp, large intestine, AVG ([8]; 120 min): 17000 ng/mL | concentration in receptor comp, large intestine, AVG ([8]; 240 min): 35000 ng/mL | concentration in receptor compartment, large intestine ([8]; 240 min, sodium): 30600 ng/mL and 25000 ng/mL and 36400 ng/mL and 49000 ng/mL | concentration in receptor comp, large intestine, AVG ([8]; 360 min): 48000 ng/mL | concentration in receptor comp, large intestine, AVG ([8]; 720 min): 90000 ng/mL | time to reach steady state of permeation ([8]; large intestinal tissue): four | Recovery from donor comp, % ([8]; large intestine, 0 min): 0.00% | mg in receptor comp ([8]; large intestine, 0 min): 0.000 mg | Recovery from donor comp, % ([8]; large intestine, 30 min): 0.45% | mg in receptor comp ([8]; large intestine, 30 min): 0.026 mg | Recovery from donor comp, % ([8]; large intestine, 60 min): 0.63% | mg in receptor comp ([8]; large intestine, 60 min): 0.036 mg | Recovery from donor comp, % ([8]; large intestine, 120 min): 1.46% | mg in receptor comp ([8]; large intestine, 120 min): 0.084 mg | Recovery from donor comp, % ([8]; large intestine, 240 min): 3.07% | mg in receptor comp ([8]; large intestine, 240 min): 0.176 mg | Recovery from donor comp, % ([8]; large intestine, 360 min): 4.20% | mg in receptor comp ([8]; large intestine, 360 min): 0.242 mg | Tamerit Permeability vs Propranolol Permeability ([8]; large intestine, FIG. 11): permeates better than propranolol | permeation compared with Propranolol ([8]; large intestine, after 4 hours): as good as Propranolol
